This note sets out measurements from ChEMBL document CHEMBL1201862, “PubChem BioAssay data set” (2004).

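Dose response: 5 concentrations. Exposure: 48 h. Format: 96-well plates. Endpoint: linear interpolation; highest concentration if not reached. GI50 marks 50% less growth.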 Calls of active or inactive are those of the source. Cut-off read from the data, not from the text of the source: active = GI50 up to about 1.1 µM and inactive = higher.

Some test systems named below: K562; HCC 2998; TK-10; UACC-257; OVCAR-8; OVCAR-3; LOX IMVI; HL-60; SW-620; COLO 205; A549; SR; HCT-15; KM12; SK-MEL-28; HOP-92.
Assay in all cases: inhibition of tumour cell growth, NCI panel, 48 h

Regarding `c1cnc2c(c1)-n1cccc1C1(CCSC1)NN2` (stereo unspecified), the GI50 in the assay on K562, in the assay with HCC 2998, with TK-10, with UACC-257, in the assay on OVCAR-8 and in the assay with OVCAR-3 was > 100 µM (inactive) in each case. For the same compound, the GI50 in the assay on LOX IMVI, in the assay on HL-60, in the assay with SW-620, in the assay on COLO 205, in the assay with A549 and in the assay with SR was > 100 µM (inactive) throughout. Also, the GI50 in the assay on HCT-15 is above 100 µM; with KM12 it was > 100 µM (inactive); with SK-MEL-28, > 100 µM (inactive).

In the case of `CCOC(=O)N[C@@H]1C2CC(=O)C(O2)[C@@H]1OC` (stereo partly specified), the GI50 in the assay on K562, in the assay with HOP-92, with HCC 2998, in the assay with TK-10, with UACC-257 and with OVCAR-8 was > 100 µM (inactive) each time. In addition, the GI50 in the assay with OVCAR-3, in the assay on LOX IMVI, in the assay with HL-60, with SW-620, in the assay on COLO 205 and in the assay on A549 was > 100 µM (inactive) throughout. The GI50 with SR is > 100 µM (inactive); in the assay on HCT-15, above 100 µM; with KM12, > 100 µM (inactive); with SK-MEL-28, 7.08 µM (inactive).

For `N#CC1(c2nc3ccccc3o2)C(=O)C(=O)N(c2ccc(Cl)c(Cl)c2)C(=O)C1=O`, the GI50 was 71 µM (inactive) in the assay with K562; 12.2 µM (inactive) in the assay with HOP-92; > 100 µM (inactive) in the assay on HCC 2998; > 100 µM (inactive) in the assay on TK-10; > 100 µM (inactive) in the assay with UACC-257; > 100 µM (inactive) in the assay with OVCAR-8. Moreover, the GI50 with OVCAR-3 is > 100 µM (inactive); in the assay on LOX IMVI, > 100 µM (inactive); in the assay on HL-60 it was 26 µM (inactive); with SW-620, > 100 µM (inactive); with COLO 205, > 100 µM (inactive); in the assay with A549, > 100 µM (inactive). Further, the GI50 in the assay with HCT-15 is 74.6 µM; in the assay on KM12, > 100 µM (inactive); with SK-MEL-28, > 100 µM (inactive).

Regarding `COC(=O)C(Cc1nc2ccccc2nc1O)C(=O)C(=O)Nc1ccc(OC)cc1[N+](=O)[O-]` (stereo unspecified), the GI50 was > 100 µM (inactive) in the assay on K562; 96.2 µM (inactive) in the assay with HOP-92; > 100 µM (inactive) in the assay on HCC 2998; > 100 µM (inactive) in the assay with TK-10; > 100 µM (inactive) with UACC-257; > 100 µM (inactive) with OVCAR-8. For the same compound, the GI50 with OVCAR-3, with LOX IMVI, in the assay on HL-60, in the assay with SW-620, with COLO 205 and with A549 was > 100 µM (inactive) each time. Besides, the GI50 in the assay on SR is > 100 µM (inactive); in the assay on HCT-15 it was above 100 µM; in the assay on KM12, > 100 µM (inactive); with SK-MEL-28 it was > 100 µM (inactive).

As to `Cc1ccc(NC(=O)CC(=O)N2N=C(N(CCC#N)c3cccc(C)c3)CC2c2ccccc2)cc1` (stereo unspecified), the GI50 in the assay on K562, in the assay on HOP-92, in the assay on HCC 2998, with UACC-257, in the assay on OVCAR-8 and with OVCAR-3 was > 100 µM (inactive) throughout. The GI50 in the assay with HL-60 is > 100 µM (inactive); in the assay with SW-620, > 100 µM (inactive); with COLO 205 it was > 100 µM (inactive); in the assay with A549, > 100 µM (inactive); in the assay with SR, > 100 µM (inactive); with HCT-15, above 100 µM. Also, the GI50 with KM12 and with SK-MEL-28 was > 100 µM (inactive) each time.
